From US20090305954A1, “HISTIDINE-CONTAINING DIASTEREOMERIC PEPTIDES AND USES THEREOF” (Yeda Research and Development Co. Ltd., priority 2005, published 2009) come the findings set out here.

In brackets after ≈: the same amount, converted by molar mass. Square brackets hold non-standard residues; d marks the D form. Peptide text beside a SMILES is read from it.

For data set [1], the system named is CL1 human prostate carcinoma cell line. In words: XTT proliferation (cytotoxicity) assay, CL1. The class given is cell-based. As for the experimental part: (§1) The CL1 human prostate carcinoma (PC) cell line is an androgen-independent (AI) subclone of LNCaP cell line, which was generated by culturing androgen-dependent (AD) LNCaP cells in charcoal-stripped, […], as described (Patel et al. 2000). 22RV1 human PC cells are AI sub-clones of the AD prostatic adenocarcinoma CWR22 xenograft (Sramkoski et al. 1999). CL1 and 22RV1 (ATCC, USA) were grown in RPMI-1640 supplemented with 10% FCS (Biological Industries, Beit Haemek, Israel). PC3 and DU145 are androgen-insensitive (AI) (non-responsive), invasive human prostate cancer cell lines. NIH-3T3 mouse fibroblast cell lines (ATCC, USA) were grown in DMEM supplemented with 10% BS. Murine Lewis lung carcinoma (LLC) cell lines were also grown in DMEM medium supplemented with 10% fetal calf serum and antibiotics under the same conditions as above.
(§2) The anticancer activity of the diastereomers 1, 5 and 11-16, 36-39, 42 and 44 was examined against human CL1 prostate cancer, murine LLC (Lewis lung carcinoma), DU 145 and PC3 cell lines. The cell selectivity of the diastereomeric peptides was also studied by examining their effect on NIH-3T3 normal mouse fibroblasts cell line.
(§3) A 96-well plate (Falcon) was used for the XTT proliferation assay. Cancer cells were grown for 24 hours (day 1) in RPMI-1640 medium ([…] cells/100 μl for LLC, CL1, 22RVI, DU 145 and PC3, respectively) supplemented with 10% fetal calf serum and antibiotics, at 37° C., in humidified atmosphere at 5% CO2 and 95% air, resulting in growth medium pH of 7.4. NIH-3T3 fibroblast cells (1×10^4 cells/100 μl) were grown in DMEM medium supplemented with 10% bovine calf serum and antibiotics under the same conditions as described above for the cancerous cells. Wells in the last two rows served as blanks (medium only, for measuring the background color of the medium) and 100% survival controls (cells and medium only without treatment), respectively.
(§4) In day 2, the peptides were dissolved in sterile PBS to a concentration of 200 μM (or 500 μM). The medium in the assay wells was replaced with 100 μl serum free medium. For the assays at pH 6, the medium was initially concentrated (×5 or ×10) and then diluted with double distilled water and addition of sodium carbonate. Before reaching the correct dilution, the medium was adjusted to pH 6 and then more water was added to reach the final dilution. The cells were grown in physiological pH, and the acidic pH was used only during the 24 hours incubation with the peptides. A sign for the correct acidity was a light yellow color of the medium. In line A of the plate, 160 μl of serum free medium was added, if the initial peptide concentration was 500 μM.
(§5) Peptide solutions, 100 μl (or 40 μl) were added to each assay well in line A, such that the final concentration of the peptide was […] and the volume 200 μl. The medium in the wells was mixed with multichannel pipette 5 times and 100 μl of it were transferred to the next row of wells (line B), to give a peptide concentration of 50 μM. The double dilution of the peptides continued downstream the plate in the same manner. The plates were then incubated for 24 h.
(§6) In day 3, XTT reaction solution was prepared by adding to 100 μl aliquots of activation solution (sodium 3′-[1-(phenyl-aminocarbonyl)-3,4-tetrazolium]-bis(4-methoxy-6-nitro) benzene sulfonic acid hydrate and N-methyl dibenzopyrazine methyl sulfate; mixed in a proportion of 50:1) (protected from light and kept in −20° C.), the substrate. 50 μl of XTT reaction solution were added to each well and the plates were incubated for 2 hours (37° C. and 5% CO2+95% air. In cases the incubation was not enough for the creation of the color, it was extended for up to 24 hours). The optical density was read at wavelength of 450 nm in an ELISA plate reader. Cell viability was determined relative to the control and final results were recorded. The results were confirmed using replications in at least three independent experiments. […]
(In general: Formazan colour is commonly taken as a measure of viable cells.)

For data set [2], the system named is PC3 human prostate cancer cell line. Briefly: XTT proliferation (cytotoxicity) assay, PC3. The format is cell-based. Conditions: PC3, pH 7.4, 24 h. The method, then: as §1, §2
A 96-well plate (Falcon) was used for the XTT proliferation assay. Cancer cells were grown for 24 hours (day 1) in RPMI-1640 medium (5×10^3, 7×10^3, 1×10^4 and 7×10^3 cells/100 μl for LLC, CL1, 22RVI, DU 145 and PC3, respectively) supplemented with 10% fetal calf serum and antibiotics, at 37° C., in humidified atmosphere at 5% CO2 and 95% air, resulting in growth medium pH of 7.4. […]
In day 3, XTT reaction solution was prepared by adding to 100 μl aliquots of activation solution (sodium 3′-[1-(phenyl-aminocarbonyl)-3,4-tetrazolium]-bis(4-methoxy-6-nitro) benzene sulfonic acid hydrate and N-methyl dibenzopyrazine methyl sulfate; mixed in a proportion of 50:1) (protected from light and kept in −20° C.), the substrate. […] The optical density was read at wavelength of 450 nm in an ELISA plate reader. Cell viability was determined relative to the control and final results were recorded. […]

Data set [3] has as its system Murine Lewis lung carcinoma (LLC) cell line. In words: XTT proliferation (cytotoxicity) assay, LLC. The class given is cell-based. As for the experimental part:
as §1, §2, §3, §4, §5, §6

In data set [4] the test system is 22RV1 human PC cells. In words: XTT proliferation (cytotoxicity) assay, 22RV1. The class given is cell-based. As for the experimental part: as §1, §3, §4, §5
In day 3, XTT reaction solution was prepared by adding to 100 μl aliquots of activation solution (sodium 3′-[1-(phenyl-aminocarbonyl)-3,4-tetrazolium]-bis(4-methoxy-6-nitro) benzene sulfonic acid hydrate and N-methyl dibenzopyrazine methyl sulfate; mixed in a proportion of 50:1) (protected from light and kept in −20° C.), the substrate. 50 μl of XTT reaction solution were added to each well and the plates were incubated for 2 hours (37° C. and 5% CO2+95% air. In cases the incubation was not enough for the creation of the color, it was extended for up to 24 hours). The optical density was read at wavelength of 450 nm in an ELISA plate reader. Cell viability was determined relative to the control and final results were recorded. The results were confirmed using replications in at least three independent experiments. The LC50 for each peptide was obtained from the curve of cell viability versus concentration of peptide and taken from the concentration at which cell viability was 50%. The data shown in Table 1 are for only one experiment, but representative of all replications.

The subject of data set [5] is pepsin, trypsin, and elastase. In words: Resistance to proteolytic digestion (reverse-phase HPLC). To be noted: after 2 hr, 140 μM peptide, 25 μM protease, 37° C. The class given is in vitro ADME. As for the experimental part: In order to reach their target, the diastereomers have to withstand proteolytic digestion of proteases, which may occur after their administration and during the time until they reach the target site. The susceptibility of the peptides 13 and 14 to proteolytic digestion by pepsin (from porcine stomach mucosa, Sigma), trypsin (from bovine pancreas, Sigma), and elastase (from human leukocytes, Sigma) was assessed by reverse-phase HPLC. As a negative control, the all L-amino acid analog peptides were used. Equal amounts of the peptides were dissolved in PBS (35 mM phosphate buffer/0.15 M NaCl, pH 7.3) at a final concentration of 140 μM, to which 25 μM of protease were added. […] After the addition of the appropriate protease inhibitor to stop the reaction, aliquots were injected to C18 column and the amounts of the intact peptides 13 and 14 and their all L analogs were evaluated using their absorbance at 215 nm.

Data set [6] concerns NIH-3T3 normal mouse fibroblasts cell line. In words: XTT proliferation (cytotoxicity) assay, normal fibroblasts. The format is cell-based. To be noted: NIH3T3, pH 7.4, 24 h. As for the experimental part:
as §1, §2, §3, §4, §5, §6

Assay in data set [7]: as above
The class given is cell-based, mouse. Conditions: mouse, NIH-3T3 normal mouse fibroblasts; NIH3T3, pH 6, 24 h; read-out: Lethal Concentration (LC50). The method, then:
as §1, §2, §3, §4, §5, §6

In data set [8] the test system is DU145 human prostate cancer cell line. In words: XTT proliferation (cytotoxicity) assay, DU145. The format is cell-based. As for the experimental part: as §1, §2, §3, §4, §5, §6

As to `CC(C)C[C@H](NC(=O)[C@H](CC(C)C)NC(=O)[C@@H](CCCCN)NC(=O)[C@H](CC(C)C)NC(=O)[C@H](CC(C)C)NC(=O)[C@H](Cc1c[nH]cn1)NC(=O)[C@@H](CCCCN)NC(=O)[C@@H](CC(C)C)NC(=O)[C@H](CC(C)C)NC(=O)[C@@H](CCCCN)NC(=O)[C@H](Cc1c[nH]cn1)NC(=O)[C@H](CC(C)C)NC(=O)[C@@H](CC(C)C)NC(=O)[C@H](Cc1c[nH]cn1)NC(=O)[C@@H](N)CC(C)C)C(N)=O` [Peptide 14] (H-LH[dL]LH[dK]L[dL][dK]HLL[dK]LL-NH2), the “Lethal Concentration (LC50)” value was determined as 12.5 µg/mL in data set [1] (CL1, pH 6, 24 h); 12.5 µg/mL in data set [1] (CL1, pH 7.4, 24 h); 18.7 µg/mL in data set [2]; 25 µg/mL in data set [3] (pH 6, 24 h); 50 µg/mL in data set [3] (pH 7.4, 24 h); 12.5 µg/mL in data set [4] (22RV1, pH 6, 24 h). The “Lethal Concentration (LC50)” value was found to be 25 µg/mL in data set [4] (22RV1, pH 7.4, 24 h); 100 µg/mL in data set [6]; 9.3 µg/mL in data set [8] (DU145, pH 6, 24 h); 12.5 µg/mL in data set [8] (DU145, pH 7.4, 24 h). The “activity compared with peptide 1” value in data set [1] (CL1 and 22RVI, pH 7.4) is given as “half as active”. In addition, the “active concentration lower than against NIH-3T3” value in data set [1] (CL1 vs NIH-3T3, pH 7.4) is 8 fold; in data set [1] (CL1 vs NIH-3T3 at the same pH) it was “at least two-fold lower”. Further, the proteases digestion in data set [5] was approximately 50%. In data set [7], the CC50 at 24 h stood at 25 µg/mL (≈ 13.7 µM).
